Assay results reported in patent publication US10927126B2, “Positive allosteric modulators of the muscarinic acetylcholine receptor M4” (Vanderbilt University, priority 2016, dated 2021).

Biological target: T1, Human M4 (Homo sapiens, UniProt P08173)
T1 sequence (P08173 1-479): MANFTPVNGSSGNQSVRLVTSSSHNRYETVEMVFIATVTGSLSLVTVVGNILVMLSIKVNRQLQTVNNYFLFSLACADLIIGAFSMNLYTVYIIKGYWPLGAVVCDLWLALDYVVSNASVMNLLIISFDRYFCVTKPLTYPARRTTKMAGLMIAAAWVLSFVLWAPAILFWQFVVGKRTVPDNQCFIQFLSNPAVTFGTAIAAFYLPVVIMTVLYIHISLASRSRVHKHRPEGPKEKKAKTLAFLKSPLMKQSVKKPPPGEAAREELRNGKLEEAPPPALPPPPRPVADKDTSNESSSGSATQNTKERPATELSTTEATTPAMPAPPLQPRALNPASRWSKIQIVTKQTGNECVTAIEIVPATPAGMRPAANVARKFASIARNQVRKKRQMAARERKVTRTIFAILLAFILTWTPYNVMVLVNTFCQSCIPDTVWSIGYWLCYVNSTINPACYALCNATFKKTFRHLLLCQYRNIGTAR
Experiment: mAChR M4 cell-based functional assay (calcium flux, potentiation of EC20 acetylcholine response)
Set-up: Emax: dose or concentration left out as unconfirmed
Conditions: not given

| EC50 | Emax | Structure (SMILES) |
| --- | --- | --- |
| 0.0254 µM | 101% | Cc1c(Cl)nnc2sc3c(N4CCCC4)nccc3c12 [Compound 35, 3-chloro-4-methyl-8-(pyrrolidin-1-yl)pyrido[4′,3′:4,5]thieno[2,3-c]pyridazine] |
| 0.185 µM | 97.6% | COc1ccc(CNc2nccc3c2sc2nnc(Cl)c(C)c23)cc1F [Compound 36, 3-chloro-N-(3-fluoro-4-methoxybenzyl)-4-methylpyrido[4′,3′:4,5]thieno[2,3-c]pyridazin-8-amine] |
| 0.562 µM | 76.4% | COc1ccc(CNc2nccc3c2sc2nnc(OC)c(C)c23)cc1 [Compound 37, 3-Methoxy-N-(4-methoxybenzyl)-4-methylpyrido[4′,3′:4,5]thieno[2,3-c]pyridazin-8-amine] |
| 0.28 µM | 80.6% | COc1nnc2sc3c(NC4CN(c5ncc(C(F)(F)F)cn5)C4)nccc3c2c1C [Compound 38, 3-methoxy-4-methyl-N-(1-(5-(trifluoromethyl)pyrimidin-2-yl)azetidin-3-yl)pyrido[4′,3′:4,5]thieno[2,3-c]pyridazin-8-amine] |
| 0.0234 µM | 93.2% | COc1nnc2sc3c(NC4CCC4)nccc3c2c1C [Compound 39, N-cyclobutyl-3-methoxy-4-methylpyrido[4′,3′:4,5]thieno[2,3-c]pyridazin-8-amine] |
| 0.374 µM | 55.9% | Cc1c(C(F)F)nnc2sc3c(N4CCCC4)nccc3c12 [Compound 40, 3-(Difluoromethyl)-4-methyl-8-(pyrrolidin-1-yl)pyrido[4′,3′:4,5]thieno[2,3-c]pyridazine] |
| 1.88 µM | 54.8% | Cc1c(C(F)F)nnc2sc3c(N4CC5(COC5)C4)nccc3c12 [Compound 41, 6-(3-(difluoromethyl)-4-methylpyrido[4′,3′:4,5]thieno[2,3-c]pyridazin-8-yl)-2-oxa-6-azaspiro[3.3]heptane] |
| 0.442 µM | 56.1% | Cc1c(C(F)F)nnc2sc3c(N4CC(c5ccncc5)C4)nccc3c12 [Compound 42, 3-(difluoromethyl)-4-methyl-8-(3-(pyridin-4-yl)azetidin-1-yl)pyrido[4′3′:4,5]thieno[2,3-c]pyridazine] |

Tested on: not given
Experiment: not given
Conditions: similar profiles to known antipsychotic drugs, without causing catalepsy; cited from earlier work

| Structure (SMILES) | activity in animal models |
| --- | --- |
| CCCCCCOc1nsnc1C1=CCCN(C)C1 [xanomeline] | active in animal models |

Tested on: not given
Experiment: not given
Conditions: Alzheimer's disease patients; cited from earlier work

| Structure (SMILES) | effect on psychotic behavioral symptoms such as delusions, suspiciousness, vocal outbursts, and hallucinations |
| --- | --- |
| CCCCCCOc1nsnc1C1=CCCN(C)C1 [xanomeline] | reduce psychotic behavioral symptoms |

Tested on: not given
Experiment: not given
Conditions: patients treated with AChE inhibitor; cited from earlier work

| Structure (SMILES) | patients with elevated liver transaminases |
| --- | --- |
| Nc1c2c(nc3ccccc13)CCCC2 [tacrine] | about 30% |
